Where two headings read alike, the source gives them in different places.
What was measured:
Assay type in all cases: cell-based
[1] = system: Colo205-LUC-TCF/LEF reporter gene; test: Colo205-LUC-TCF/LEF M1 reporter cell line luciferase inhibition; conditions: 4 hours incubation, firefly luciferase signal
Method: Colo205 cell line (Cell Bank of Chinese Academy of Sciences, Cat #TCHul02) was purchased from the Cell Bank of Chinese Academy of Sciences. After expansion and subculture, during the exponential growth phase, luciferase reporter plasmid (Promega) driven by TCF/LEF transcription factor was transfected by lipo3000 liposome transfection. The plasmid carries a resistance gene for resistance screening. Transfection was carried out in 10 cm culture dishes using conventional complete medium without resistance. After 2 days, the medium with resistance was replaced, and the culture was continued. After that, the medium with resistance was replaced every 2 days, and the suspended cells were discarded. The original medium was centrifuged to remove cells and debris and retained as an adaptive medium. When the cells covered the culture dish, the cells were digested, counted, and passaged in a 96-well plate, so that the average number of cells contained in each well was 1.5/well, and the adaptive medium was used for passage. The rest of the cells were frozen. After passage, culture for 4 hours to allow the cells to adhere to the wall, and then observe the number of cells in each well under a microscope. Wells with only 1 cell per well were labeled as monoclonal wells. Afterwards, normal culture was performed, and the culture medium was replaced every 2 days, and observed. There are wells where the monoclonal cells continue to grow in the early stage, and they are labeled twice, and can be replaced with normal medium with resistance. When a monoclonal well was overgrown with a 96-well plate, it is digested and passaged to a 24-well culture plate. After the 24-well plate is overgrown, it is passaged to a 96-well plate and a 6-well plate. The cells in a 96-well plate are at least 6 wells, of which 3 wells were added with known Wnt inhibitors, and the other 3 wells were not treated. After 24 hours, the cells in the 96-well plate were added with a fluorescence detection reagent to detect the fluorescence intensity. Cell lines with fluorescent expression when not treated and decreased fluorescent light after inhibition were selected and further cultured. The Colo205-LUC-TCF/LEF-M1 cell line is one of the cell lines screened above. Its growth curve, cell shape, and cell growth state are similar to those of the original Colo205 cells, and the ratio of the fluorescent signals of the inhibitor-treated and untreated cells is the largest among all cell lines, and the ratio can reach 4-5 times when inhibited at 4 hours, which was completely suitable for the screening of Wnt inhibitors in the later stage.
The Colo205-LUC-TCF/LEF M1 cell line is a reporter tool cell stably transfected with the pGL4.49-LUC2-TCF/LEF vector. The β-catenin Wnt pathway is continuously activated. After adding the inhibitor, the Wnt pathway is inhibited. The expression of firefly luciferase regulated by the TCF/LEF cis-element decreased, and after adding the detection substrate, the detected light signal decreased accordingly, so as to detect the inhibitory effect of the compound.
To a 96-well cell culture plate, add 100 uL of the compound with a maximum concentration of 20 uM to each well, and make a 3-fold serial dilution of the compound concentration. Then 10,000 colo205 cells stably transfected with the reporter gene and 100 uL medium were inoculated into each well, and corresponding positive and negative control wells were made at the same time. Put the cells in a 5% CO2 incubator and incubate at 37° C. for 4 hours. After 4 hours, remove the culture medium, add 100 μL of reagent (Promega) containing the corresponding firefly luciferase substrate to each well, and measure the activity of luciferase reporter gene. Luminescence intensity was read with SpectraMax in full wavelength mode. […]

[2] = system: HepG2; test: Proliferation inhibition test, Wnt mutant cell line HepG2; conditions: HepG2, 96 h culture with compound, read-out: Antiproliferation IC50 HepG2
From the text: (§1) The cell lines used in the experiment are Colo205, H929, HepG2, and DU4475, which have sustained activation of the Wnt pathway and whose proliferation is Wnt pathway-dependent. On the other hand, RKO cell line, in which normally the Wnt pathway is not activated and whose proliferation is not Wnt pathway-dependent, was used as a control cell line. This was done to determine whether the inhibitory effect of the compound of the present disclosure on Wnt-dependent proliferation is due to other nonspecific toxicity.
(§2) Colo205, H929, DU4475, HepG2 and RKO cell lines cultured in their respective culture media were treated in the logarithmic growth phase, and the cells were collected and prepared into a uniform cell suspension of known concentration, and then added to a 96-well cell culture plate so that each well contained 1000-4000 cells. Place in a 5% CO2 cell culture incubator and culture at 37° C. for 20-24 h. On the second day, add the completely dissolved, 3-fold gradient dilution compound to each cell culture well to make the final maximum concentration in the cell culture well 10 uM, and continue to culture for 96 h. This test uses Promega's cell activity detection test for detection. The more the cells proliferate, the stronger the final signal intensity. The detection instrument is SpectraMax, full wavelength mode. The wells with only DMSO added were used as positive control wells, and the wells without cells inoculated were used as negative control wells.

[3] = system: RKO; test: Proliferation inhibition test, non-Wnt mutant control cell line RKO; conditions: Homo sapiens; RKO (Wnt pathway not activated, control), 96 h culture, maximum concentration 10 uM; read-out: Antiproliferation IC50 RKO
From the text: as §1, §2

[4] = system: H929; test: Proliferation inhibition test, Wnt mutant cell line H929; conditions: Homo sapiens, NCI-H929, 96 h, H929, 96 h culture with compound; read-out: Antiproliferation IC50 H929
From the text: as §1, §2

[5] = system: Colo205; test: Proliferation inhibition test, Wnt mutant cell line Colo205; conditions: Colo205, 96 h culture with compound, read-out: Antiproliferation IC50 Colo205
From the text: as §1, §2

[6] = system: DU4475; test: Proliferation inhibition test, Wnt mutant cell line DU4475; conditions: Homo sapiens, DU-4475, 96 h, DU4475, 96 h culture with compound; read-out: Antiproliferation IC50 DU4475
From the text: as §1, §2

Row | SMILES | IC50 ([1]; 4 h) | IC50 ([2]; Homo sapiens, HepG2, 96 h) | IC50 [3] | IC50 [4] | IC50 ([5]; Homo sapiens, COLO 205, 96 h) | IC50 [6] | IC50 [1] | IC50 [2] | IC50 [5]
1 | [2H]C([2H])([2H])N1c2nc(NCc3ccc(Oc4ccc(C(F)(F)F)nc4Cl)nc3)nc3c2N(CCC3)C(=O)[C@@H]1CO [Compound 1, (S)-2-(((6-((2-chloro-6-(trifluoromethyl)pyridin-3-yl)oxy)pyridin-3-yl)methyl)amino)-5-(hydroxymethyl)-4-(methyl-d3)-4,5,9,10-tetrahydro-6H,8H-pyrido[3,2,1-de]pteridin-6-one] | 15.5 nM | 1.45 nM | > 10000 nM | 40.3 nM | 7.81 nM | 3.17 nM |  |  | 
2 | CN1c2nc(NCc3ccc(Oc4ccc(C(F)(F)F)nc4Cl)nc3)nc3c2N(CCC3)C(=O)[C@@H]1CO [Compound 2, (S)-2-(((6-((2-chloro-6-(trifluoromethyl)pyridin-3-yl)oxy)pyridin-3-yl)methyl)amino)-5-(hydroxymethyl)-4-methyl-4,5,9,10-tetrahydro-6H,8H-pyrido[3,2,1-de]pteridin-6-one] | 22.5 nM | 1.68 nM | > 10000 nM | 47.7 nM | 8.67 nM | 5.05 nM |  |  | 
3 | [2H]C([2H])([2H])N1c2nc(NCc3ccc(Oc4ccc(C(F)(F)F)nc4Cl)nc3)nc3c2N(CCC3)C(=O)[C@]1(C)CO [Compound 3, (S)-2-(((6-((2-chloro-6-(trifluoromethyl)pyridin-3-yl)oxy)pyridin-3-yl)methyl)amino)-5-(hydroxymethyl)-5-methyl-4-(methyl-d3)-4,5,9,10-tetrahydro-6H,8H-pyrido[3,2,1-de]pteridin-6-one] | 15.6 nM | 2.17 nM | > 10000 nM | 20 nM | 4.48 nM | 3.06 nM |  |  | 
4 | [2H]C([2H])([2H])N1c2nc(NCc3ccc(Oc4cnc(C(F)(F)F)nc4C)nc3)nc3c2N(CCC3)C(=O)[C@@H]1CO [Compound 4, (S)-5-(Hydroxymethyl)-4-(methyl-d3)-2-(((6-((4-methyl-2-(trifluoromethyl)pyrimidin-5-yl)oxy)pyridin-3-yl)methyl)amino)-4,5,9,10-tetrahydro-6H,8H-pyrido[3,2,1-de]pteridin-6-one] | 66.3 nM | 89.7 nM | > 10000 nM | 278 nM | 42.6 nM | 25.8 nM |  |  | 
5 | [2H]C([2H])([2H])N1c2nc(NCc3ccc(Oc4cnc(C(F)(F)F)nc4C)nc3)nc3c2N(CCC3)C(=O)[C@]1(C)CO [Compound 5, (S)-5-(Hydroxymethyl)-5-methyl-4-(methyl-d3)-2-(((6-((4-methyl-2-(trifluoromethyl)pyrimidin-5-yl)oxy)pyridin-3-yl)methyl)amino)-4,5,9,10-tetrahydro-6H,8H-pyrido[3,2,1-de]pteridin-6-one] | 50.9 nM | 33.5 nM | > 10000 nM | 160 nM | 20.6 nM | 14.4 nM |  |  | 
6 | Cc1nc(C(F)(F)F)ncc1Oc1ccc(CNc2nc3c4c(n2)N(C)[C@@](C)([C@H](C)O)C(=O)N4CCC3)cn1 [Compound 6, (S)-5-((S)-1-hydroxyethyl)-4,5-dimethyl-2-(((6-((4-methyl-2-(trifluoromethyl)pyrimidin-5-yl)oxy)pyridin-3-yl)methyl)amino)-4,5,9,10-tetrahydro-6H,8H-pyrido[3,2,1-de]pteridin-6-one] |  |  | > 10000 nM | 303 nM |  | 47.4 nM | 65.6 nM | 109 nM | 9.05 nM
7 | [2H]C([2H])([2H])N1c2nc(NCc3ccc(Oc4cnc(C(F)(F)F)nc4CC)nc3)nc3c2N(CCC3)C(=O)[C@]1(C)CO [Compound 7, (S)-2-(((6-((4-ethyl-2-(trifluoromethyl)pyrimidin-5-yl)oxy)pyridin-3-yl)methyl)amino)-5-(hydroxymethyl)-5-methyl-4-(methyl-d3)-4,5,9,10-tetrahydro-6H,8H-pyrido[3,2,1-de]pteridin-6-one] | 10.7 nM | 15.6 nM | > 10000 nM | 52.2 nM | 5.54 nM | 3.59 nM |  |  | 
8 | [2H]C([2H])([2H])N1c2nc(NCc3ccc(Oc4cnc(C(F)(F)F)nc4CC)nc3)nc3c2N(CCC3)C(=O)[C@@H]1CO [Compound 8, (S)-2-(((6-((4-ethyl-2-(trifluoromethyl)pyrimidin-5-yl)oxy)pyridin-3-yl)methyl)amino)-5-(hydroxymethyl)-4-(methyl-d3)-4,5,9,10-tetrahydro-6H,8H-pyrido[3,2,1-de]pteridin-6-one] | 32 nM | 35.1 nM | > 10000 nM | 86.9 nM | 24.2 nM | 9.6 nM |  |  | 
9 | [2H]C([2H])([2H])N1c2nc(NCc3ccc(Oc4cnc(C(F)(F)F)nc4C4CC4)nc3)nc3c2N(CCC3)C(=O)[C@@H]1CO [Compound 9, (S)-2-(((6-((4-cyclopropyl-2-(trifluoromethyl)pyrimidin-5-yl)oxy)pyridin-3-yl)methyl)amino)-5-(hydroxymethyl)-4-(methyl-d3)-4,5,9,10-tetrahydro-6H,8H-pyrido[3,2,1-de]pteridin-6-one] | 13.8 nM | 11.3 nM | > 10000 nM | 36.4 nM | 8.43 nM | 0.46 nM |  |  | 
10 | CCc1nc(C(F)(F)F)ncc1Oc1ccc(CNc2nc3c4c(n2)N(C)[C@@](C)([C@H](C)O)C(=O)N4CCC3)cn1 [Compound 14, (S)-2-(((6-((4-ethyl-2-(trifluoromethyl)pyrimidin-5-yl)oxy)pyridin-3-yl)methyl)amino)-5-((S)-1-hydroxyethyl)-4,5-dimethyl-4,5,9,10-tetrahydro-6H,8H-pyrido[3,2,1-de]pteridin-6-one] | 35.2 nM | 79 nM | > 10000 nM |  | 70.3 nM |  |  |  | 
11 | CN(C)c1nc(C(F)(F)F)ccc1Oc1ccc(CNc2nc3c4c(n2)N(C)[C@@](C)(CO)C(=O)N4CCC3)cn1 [Compound 15, (S)-2-(((6-((2-(dimethylamino)-6-(trifluoromethyl)pyridin-3-yl)oxy)pyridin-3-yl)methyl)amino)-5-(hydroxymethyl)-4,5-dimethyl-4,5,9,10-tetrahydro-6H,8H-pyrido[3,2,1-de]pteridin-6-one] | < 0.1 nM | 1.3 nM | > 10000 nM |  | 1.35 nM |  |  |  | 

Source: patent US20250163062A1, “WNT PATHWAY INHIBITOR COMPOUNDS” (ADLAI NORTYE BIOPHARMA CO., LTD., priority 2022, published 2025)
